Molecules are shown by their SMILES.

The subject of the assay is THP-1 cells. Nature of the assay: Reverse transcriptase and real-time quantitative PCR of LPS-induced transcription in THP-1 cells. It counts as cell-based, Human. As to the method: THP-1 cells were cultured in RPMI1640 medium, supplemented with 10% FBS/100 units/ml Penicillin/10 μg/ml Streptomycin at 37° C., under 5% CO2. […] For the untreated control group (no LPS, no compound) and LPS alone group, equivalent volumes of DMSO were added to the medium. Cells were cultured at 37° C. and pellets were collected at 0 hr, 1 hr, 3 hr, 6 hr, 12 hr & 24 hr. Cell pellets were stored at −80° C. if RNA isolation was not conducted immediately. For experiments to study cytokine secretion in culture supernatants, THP-1 cells were washed twice with PBS, resuspended at 3.4×10^5/ml and cultured in 96-well plates at 250 μL, per well at 37° C. […] Supernatants were collected at different time points as indicated in the figures and were kept at ≦−20° C. until analysis of cytokine production.
Total RNA was isolated using RNeasy mini kit from QIAGEN (Valencia, Calif.) according to the manufacturer's instructions. RNA samples were stored at −80° C.
Two to three micrograms of DNase-treated total RNA were reverse transcribed to cDNA using the Transcriptor First Strand cDNA Synthesis Kit (Roche Diagnostics Corporation, Indianapolis, Ind.) according to the instructions.
Real-time PCR was carried out with the LightCycler FastStart DNA Master^plus SYBR Green I kit (Roche Diagnostics) according to the manufacturer's instructions.
The PCR profile was as follows: (i) denaturation at 95° C. for 10 min. (ii) 45 cycles of 0 s at 95° C., 5 s at 54-58° C. (depending on Tm of the primers), 6-16 s (determined by the length of amplicon) at 72° C. (iii) melting curves for 0 s at 95° C., 15 s at 65° C. and 0 s at 95° C. (iv) cooling at 40° C. for 30 s. Transition rates were: 20° C./s for all steps except 0.1° C./s for 95° C. segment 3 of the melting curves.
For data analysis, the baseline adjustment was carried out in the “arithmetic” mode, and the fluorescence curve analysis was carried out in the “Second Derivative Maximum” mode of the LightCycler™ software (Version 3.5).
The primers used for real-time PCR were as follows (5′ to 3′): […]

Setting [1] is: simvastatin 10 μM or tipifarnib 5 μM, 6 and 12 hours.

For `Cn1cncc1C(N)(c1ccc(Cl)cc1)c1ccc2c(c1)c(-c1cccc(Cl)c1)cc(=O)n2C` (single isomer, unassigned; (+)) [tipifarnib, (+)-6-[amino(4-chlorophenyl)(1-methyl-1H-imidazol-5-yl)methyl]-4-(3-chlorophenyl)-1-methyl-2(1H)-quinolinone], the “Induction of IL-8 by LPS” value under setting [1] is reported as “no significant effect” and the “Induction of IL-8 by LPS” value (simvastatin 10 μM or tipifarnib 5 μM, 3 hours) is listed as “unaffected”. Moreover, the “STAT1 induction by LPS” value under setting [1] was “inhibited”. In addition, the “peak of LPS-induced IL-6 transcription” value (simvastatin 10 μM or tipifarnib 5 μM, 6 hours) is listed as “inhibition”. Further, the “LPS-induced IL-6 transcription” value (simvastatin 10 μM or tipifarnib 5 μM, 12 hours) was “inhibition”. Also, the “LPS-induced IL-1β transcription” value reads like this: (simvastatin 10 μM or tipifarnib 5 μM, after 6 and 12 hours) “significantly downregulated”; (simvastatin 10 μM or tipifarnib 5 μM, up to 3 hours) “unaffected”. Moreover, the “LPS-induced MCP-1 transcription” value (simvastatin 10 μM or tipifarnib 5 μM, from 6 hours) is “inhibited significantly”. The “MyD88 induction by LPS” value (tipifarnib 5 μM, 6 and 12 hours) is “almost complete inhibition”. The “MMP-9 induction by LPS” value (tipifarnib 5 μM, 12 hours) is “no induction”.
